Test results as given in EP3901142A1, “PYRAZOLYLBENZENE-1,3-DIOLS FOR DISEASES ASSOCIATED WITH G PROTEIN-COUPLED RECEPTOR 18 AND IN COMBINATION WITH TRANSIENT RECEPTOR POTENTIAL VANILLOID 1” (Consejo Superior de Investigaciones Científicas (CSIC), priority 2020, dated 2021).

Target: TRPV1 (Homo sapiens, UniProt Q8NER1)
Assay: Calcium imaging (Fura-2 AM) in TRPV1-expressing cells
Type: cell-based
Conditions: 5 µM; TPRV1-expressing cells
Method: Cell Culture. A plasmid containing GPR18 (NM_005292) was obtained from Origene (Rockville, MD) and engineered with an N-terminal GFP-tag. The resulting plasmid was used to transfect CHO-K1 cells using Lipofectamine 2000 (Invitrogen, Carlsbad CA). Clonal cells were selected in medium containing G418 (Geneticin, 800 µg/ml; Enzo Life Sciences, Farmingdale, NY). Two weeks after transfection, clones were isolated and expression was verified by fluorescence microscopy of GFP-tagged receptors. The resulting stable cell line was cultured in DMEM with 10% fetal bovine serum at 37°C, 5% CO2 and passaged every 2-3 days. […] Two weeks after transfection, clones were isolated and expression was verified by fluorescence microscopy of HA-tagged receptors. […] Intracellular calcium levels were determined by measuring fluorescence emissions from Fura-2 AM (510 nm) after alternating excitation at 340 and 380 nm at 0.25 Hz for 5 min. Images were analyzed in the NIS-Elements AR software (Nikon), and the fluorescence ratio at 340nm/380nm was converted to Ca^2+ concentrations.

Chain of TRPV1 (Q8NER1 whole entry): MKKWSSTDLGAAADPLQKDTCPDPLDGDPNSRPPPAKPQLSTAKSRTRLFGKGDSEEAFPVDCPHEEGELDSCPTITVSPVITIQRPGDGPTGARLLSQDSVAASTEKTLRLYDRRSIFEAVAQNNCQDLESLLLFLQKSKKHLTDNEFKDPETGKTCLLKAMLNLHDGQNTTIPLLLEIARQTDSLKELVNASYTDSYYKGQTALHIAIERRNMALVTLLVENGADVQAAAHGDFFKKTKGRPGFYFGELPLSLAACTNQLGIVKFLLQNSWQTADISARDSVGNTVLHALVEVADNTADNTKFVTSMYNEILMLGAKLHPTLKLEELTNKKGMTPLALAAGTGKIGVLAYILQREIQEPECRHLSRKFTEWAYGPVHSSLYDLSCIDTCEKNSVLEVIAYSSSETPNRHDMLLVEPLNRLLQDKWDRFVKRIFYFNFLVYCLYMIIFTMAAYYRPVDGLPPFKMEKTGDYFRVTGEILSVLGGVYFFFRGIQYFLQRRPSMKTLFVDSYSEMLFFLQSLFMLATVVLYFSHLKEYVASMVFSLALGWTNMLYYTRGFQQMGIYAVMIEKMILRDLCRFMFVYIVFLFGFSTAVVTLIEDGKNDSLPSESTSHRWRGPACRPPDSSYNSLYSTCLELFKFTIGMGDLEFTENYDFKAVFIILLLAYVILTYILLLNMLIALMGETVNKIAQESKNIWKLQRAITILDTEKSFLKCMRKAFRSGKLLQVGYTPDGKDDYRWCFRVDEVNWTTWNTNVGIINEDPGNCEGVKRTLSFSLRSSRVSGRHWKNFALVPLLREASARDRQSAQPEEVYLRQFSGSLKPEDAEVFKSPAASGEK

## CCCCC/C=C\C/C=C\C/C=C\C/C=C\CCCC(=O)NCCO [Anandamide]
  effect on intracellular calcium (Ca^2+): increases intracellular calcium (Ca^2+)
